Settings in all cases: pH 7.5
The target of assay [1] is T1, Tyrosyl-DNA phosphodiesterase 2 (Homo sapiens, UniProt O95551).
T1 sequence (O95551 whole entry): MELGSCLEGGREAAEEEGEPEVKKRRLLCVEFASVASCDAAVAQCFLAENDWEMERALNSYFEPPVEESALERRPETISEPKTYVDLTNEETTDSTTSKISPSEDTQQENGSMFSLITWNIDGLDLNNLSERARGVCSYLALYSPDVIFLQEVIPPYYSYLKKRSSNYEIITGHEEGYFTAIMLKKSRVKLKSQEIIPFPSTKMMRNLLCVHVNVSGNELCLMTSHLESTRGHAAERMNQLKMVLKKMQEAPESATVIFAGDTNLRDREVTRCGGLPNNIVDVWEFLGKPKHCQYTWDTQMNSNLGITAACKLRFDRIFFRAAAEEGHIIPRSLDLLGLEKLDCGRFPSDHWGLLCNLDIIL
Description: TDP2 Assays with Whole Cell Extracts. The method, then:
Cell pellets were then resuspended in 100 uL of CelLytic M cell lysis reagent (SIGMA-Aldrich C2978). After 15 min on ice, lysates were centrifuged at 12 000g for 10 min, and supernatants were transferred to a new tube. Protein concentrations were determined using a Nanodrop spectrophotometer (Invitrogen), and whole cell extracts were stored at -80 °C. […] Reactions were terminated and samples analyzed.

The target in assay [2] is T2, Tyrosyl-DNA phosphodiesterase 2 [E242G,S244A,Q278R,I281T,K282R,R316G,P318T,Y321CH323L] (Mus musculus, UniProt Q9JJX7, E242G/I281T/K282R/P318T/Q278R/R316G/S244A/Y321CH323L).
T2 sequence (Q9JJX7 whole entry): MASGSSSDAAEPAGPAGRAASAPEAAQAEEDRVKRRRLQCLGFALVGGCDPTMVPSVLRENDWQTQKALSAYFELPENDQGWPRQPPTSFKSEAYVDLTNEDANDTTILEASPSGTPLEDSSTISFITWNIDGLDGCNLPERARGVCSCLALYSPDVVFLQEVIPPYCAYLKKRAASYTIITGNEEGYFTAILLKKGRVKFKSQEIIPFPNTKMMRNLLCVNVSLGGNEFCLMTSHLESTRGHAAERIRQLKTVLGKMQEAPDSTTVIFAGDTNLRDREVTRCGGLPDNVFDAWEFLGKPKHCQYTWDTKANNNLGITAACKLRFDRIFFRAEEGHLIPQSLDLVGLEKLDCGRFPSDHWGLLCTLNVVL
Description: Recombinant TDP2 Assay. As to the method: (§1) TDP2 reactions were carried out as described previously23 with the following modifications.

The target in assay [3] is T3, Tyrosyl-DNA phosphodiesterase 2 (Mus musculus, UniProt Q9JJX7).
T3 sequence (Q9JJX7 whole entry): T2 sequence (Q9JJX7 whole entry) with G242E, A244S, R278Q, T281I, R282K, G316R, T318P, C321Y, L323H
Description: Recombinant TDP2 Assay. As to the method:
as §1

Assay [4] has as its target Tyrosyl-DNA phosphodiesterase 2 [E242G,S244A,Q278R,I281T,K282R,R316G,P318T,Y321C] (Mus musculus, UniProt Q9JJX7, E242G/I281T/K282R/P318T/Q278R/R316G/S244A/Y321C). Description: Recombinant TDP2 Assay. As to the method:
as §1

Assay [5] deals with T1, Tyrosyl-DNA phosphodiesterase 2. In words: Recombinant TDP2 Assay. As to the method: as §1

Changes are numbered by the printed parent chain. pIC50: −log10 of the molar value. Where only a bound is given, the exact number is not on record here.

Chain of Tyrosyl-DNA phosphodiesterase 2 [E242G,S244A,Q278R,I281T,K282R,R316G,P318T,Y321C] (Q9JJX7 whole entry E242G/S244A/Q278R/I281T/K282R/R316G/P318T/Y321C): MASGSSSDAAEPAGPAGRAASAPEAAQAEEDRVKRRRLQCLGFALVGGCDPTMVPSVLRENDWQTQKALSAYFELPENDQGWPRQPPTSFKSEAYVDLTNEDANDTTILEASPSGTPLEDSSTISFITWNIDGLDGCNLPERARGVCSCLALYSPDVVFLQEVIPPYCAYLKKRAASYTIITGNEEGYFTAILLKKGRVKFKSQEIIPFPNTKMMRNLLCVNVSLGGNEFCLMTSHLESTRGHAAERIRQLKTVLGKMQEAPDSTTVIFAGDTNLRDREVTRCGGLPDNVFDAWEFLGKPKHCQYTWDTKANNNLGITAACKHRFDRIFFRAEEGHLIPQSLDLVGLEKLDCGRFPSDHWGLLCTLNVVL

Take `O=c1nc2n(-c3ccc(O)cc3)c3cc(Cl)ccc3cc-2c(=O)[nH]1`: the negative logarithm of the IC50 (pIC50) in assay [1] is 5.64; in assay [2], 5.40; in assay [3] it was < 3.95; in assay [4] it was 4.46; in assay [5], 5.41.

`N#Cc1ccc2cc3c(=O)[nH]c(=O)nc-3n(-c3ccc(O)cc3)c2c1`: the pIC50 in assay [2] was 6.77; in assay [3], < 3.95; in assay [4], 5.96.
